From patent US20100069388A1, “N-HYDROXYACRYLAMIDE COMPOUNDS” (ASTELLAS PHARMA INC., priority 2006, published 2010)
Counter-ions that a name gives are not always drawn.

Columns and labels:
[1] = test system: human histone deacetylase (partially purified from Jurkat cells); assay: Test 1: Determination of histone deacetylase inhibitor activity ([3H] acetyl histone deacetylation); type: biochemical; conditions: partially purified human HDAC from Jurkat cells, [3H] acetyl-labeled histones, 25° C., 30 minutes; read-out: Test 1: HDAC inhibitory activity IC50
Experimental: The partial purification of human histone deacetylase, the preparation of [^3H] acetyl histones, and the assay for histone deacetylase activity were performed basically according to the method as proposed by Yoshida et al. as follows.
The human histone deacetylase was partially purified from human T cell leukemia Jurkat cells. Jurkat cells (5×10^8 cells) were suspended in 40 mL of the HDA buffer consisting of 15 mM potassium phosphate, pH 7.5, 5% glycerol and 0.2 mM EDTA. After homogenization, nuclei were collected by centrifugation (35,000×g, 10 min) and homogenized in 20 mL of the same buffer supplemented with 1 M (NH4)2SO4. The viscous homogenate was sonicated and clarified by centrifugation (35,000×g, 10 min), and the deacetylase was precipitated by raising the concentration of (NH4)2SO4 to 3.5 M. The precipitated protein was dissolved in 10 mL of the HDA buffer and dialyzed against 4 liters of the same buffer. The dialyzate was then loaded onto a DEAE-cellulose (Whatman DE52) column (25×85 mm) equilibrated with the same buffer and eluted with 300 mL of a linear gradient (0-0.6 M) of NaCl. A single peak of histone deacetylase activity appeared between 0.3 and 0.4 M NaCl.
To obtain [^3H] acetyl-labeled histone as the substrate for the histone deacetylase assay, 1×10^8 cells of Jurkat in 20 mL of RPMI-1640 medium (supplemented with 10% FBS, penicillin (50 units/mL) and streptomycin (50 μg/mL)) were incubated with 300 MBq [^3H] sodium acetate in the presence of 5 mM sodium butyrate for 30 minutes in 5% CO2-95% air atmosphere at 37° C. in a 75 cm^2 flask, harvested into a centrifuge tube (50 mL), collected by centrifugation at 1000 rpm for 10 minutes, and washed once with phosphate-buffered saline. The washed cells were suspended in 15 mL of ice-cold lysis buffer (10 mM Tris-HCl, 50 mM sodium bisulfite, 1% Triton X-100, 10 mM MgCl2, 8.6% sucrose, pH 6.5). After Dounce homogenization (30 stroke), the nuclei were collected by centrifugation at 1000 rpm for 10 minutes, washed 3 times with 15 mL of the lysis buffer, and once with 15 mL of ice-cooled washing buffer (10 mM Tris-HCl, 13 mM EDTA, pH 7.4) successively. The pellet was suspended in 6 mL of ice-cooled water using a mixer, and 68 μl of H2SO4 was added to the suspension to give a concentration of 0.4 N. After incubation at 4° C. for 1 hour, the suspension was centrifuged for 5 minutes at 15,000 rpm, and the supernatant was taken and mixed with 60 mL of acetone. After overnight incubation at −20° C., the coagulated material was collected by microcentrifugation, air-dried, and stored at −80° C.
For the standard assay, 10 μl of [^3H] acetyl-labeled histones were added to 90 μl of the enzyme fraction, and the mixture was incubated at 25° C. for 30 minutes. The reaction was stopped by addition of 10 μl of HCl aq. The released [^3H] acetic acid was extracted with 1 mL of ethyl acetate, and 0.9 mL of the solvent layer was taken into 10 mL of toluene scintillation solution for determination of radioactivity.

[2] = test system: splenic cells of Lewis rats; assay: Test 2: Determination of T-cell growth inhibitor activity (T lymphocyte blastogenesis, Concanavalin A, AlamarBlue); type: cell-based; conditions: Lewis rat splenic cells, Concanavalin A 1 μg/mL, 72 hours, read-out: Test 2: T-cell growth inhibitory activity IC50
Experimental: The T lymphocyte blastogenesis test was performed in microtiter plates with each well containing 1.5×10^5 splenic cells of Lewis rats in 0.1 mL RPMI-1640 medium supplemented with 10% fetal bovine serum (FBS), […] 2-mercaptoethanol, penicilln (100 units/mL) and streptomycin (100 μg/mL), to which Concanavalin A (1 μg/mL) was added. The cells were incubated at 37° C. in a humidified atmosphere of 5% CO2 for 72 hours. After the culture period, suppressive activities of the test compounds in T lymphocyte blastogenesis were quantified by AlamarBlue (trademark) Assay. The test samples were dissolved in DMSO and further diluted with RPMI-1640 medium and added to the culture. The activities of the test compounds were expressed as IC50.

| Structure (SMILES) | IC50 [1] | IC50 [2] |
| --- | --- | --- |
| O=C(/C=C/c1cnc(NCCNC(=O)c2ccc(Cl)cc2)c(Cl)c1)NO [Example 3, 4-chloro-N-[2-({3-chloro-5-[(1E)-3-(hydroxyamino)-3-oxo-1-propen-1-yl]-2-pyridinyl}amino)ethyl]benzamide hydrochloride] | 1.7 nM | 18 nM |
| O=C(/C=C/c1cnc(NCCNC(=O)C2CCCCC2)c(Cl)c1)NO [Example 10] | 6.8 nM | 17 nM |
| C[C@H](CN(C)Cc1ccc(Cl)cc1)Nc1ncc(/C=C/C(=O)NO)cc1Cl [Example 11] | 8.8 nM | 6.2 nM |
| O=C(/C=C/c1cnc(NCCOc2ccccc2)cn1)NO [Example 23] | 6 nM | 21 nM |
| C[C@H](CN(C)Cc1ccccc1)Nc1cnc(/C=C/C(=O)NO)cn1 [Example 36] | 4 nM | 1.5 nM |
| C[C@H](CN(C)CC1CCCCC1)Nc1cnc(/C=C/C(=O)NO)cn1 [Example 39] | 0.78 nM | 0.23 nM |
| C[C@@H](Nc1ncc(/C=C/C(=O)NO)cc1Cl)C(=O)NCC1CCCCC1 [Example 49, N^2-{3-chloro-5-[(1E)-3-(hydroxyamino)-3-oxoprop-1-en-1-yl]pyridin-2-yl}-N^1-(cyclohexylmethyl)-D-alaninamide] | 25 nM | 17 nM |
| CC(C)[C@@H](Nc1cnc(/C=C/C(=O)NO)cn1)C(=O)NCC1CCCCC1 [Example 57] | 9.1 nM | 4.7 nM |
| C[C@H](CNC(=O)C1CCCCC1)Nc1cnc(/C=C/C(=O)NO)cn1 [Example 66] | 3.9 nM | 21 nM |
| C[C@@H](Nc1cnc(/C=C/C(=O)NO)cn1)C(=O)NC1Cc2ccccc2C1 [Example 86] | 8.2 nM | 28 nM |
| C[C@@H](Nc1cnc(/C=C/C(=O)NO)cn1)C(=O)NC1CCCCCC1 [Example 87] | 2.3 nM | 3.2 nM |
| C[C@@H](Nc1cnc(/C=C/C(=O)NO)cn1)C(=O)N[C@]12CC3C[C@H](C[C@H](C3)C1)C2 [Example 88] | 2.7 nM | 1.5 nM |
| CC(C)[C@@H](Nc1cnc(/C=C/C(=O)NO)cn1)C(=O)Nc1ccccc1 [Example 91] | 1.5 nM | 2.6 nM |
